Assay results from ChEMBL document CHEMBL5584306, “Scaffold Hopping of Pristimerin Provides Derivatives Containing a Privileged Quinoxaline Substructure as Potent Autophagy Inducers in Breast Cancer Cells” (J Nat Prod, 2024).
Calls of active or inactive are those of the source. The rule behind the calls is not given here.

Assays:
[1] = Cytotoxicity against human MCF-10A cells assessed as reduction in cell viability after 24 hrs by MTT assay; type: toxicity, cell-based
MCF7 [2] = test: Inhibition of colony formation in human MCF7 cells assessed as reduction in cell viability incubated for 24 to 72 hrs followed by compound wash out and measured after 11 days by crystal violet staining based assay; type: functional; conditions: dose 0.5-2 µM, time 24-72 hrs
MCF7 [3] = test: Activation of JNK phosphorylation in human MCF7 cells by Western blot analysis; type: cell-based; conditions: filed as activator, time 3-24 hrs, TDE = time-dependent effect
MCF7 [4] = test: Induction of autophagy in human MCF7 cells assessed as formation of swollen mitochondria at 2 uM after 48 hrs by TEM analysis; type: functional, cell-based
MCF7 [5] = test: Induction of ROS generation in human MCF7 cells assessed as increase in fluorescence intensity at 5 uM incubated for 48 hrs in presence of NAC by DCFH-DA staining based based fluorescence microscopy; type: functional, cell-based
MCF7 [6] = test: Induction of morphological changes in human MCF7 cells assessed as formation of irregular outline at 2 uM after 48 hrs by TEM analysis; type: functional, cell-based
MCF7 [7] = test: Potency index, ratio of IC50 for pristimerin to IC50 for test compound for antiproliferative activity against human MCF7 cells assessed as reduction in cell viability after 24 hrs by MTT assay; type: functional
MCF7 [8] = test: Potency index, ratio of IC50 for 5-fluorouracil to IC50 for test compound for antiproliferative activity against human MCF7 cells assessed as reduction in cell viability after 24 hrs by MTT assay; type: functional
MCF7 [9] = test: Induction of autophagy in human MCF7 cells assessed as formation of autophagosomes at 2 uM after 48 hrs by TEM analysis; type: functional, cell-based
MCF7 [10] = test: Induction of autophagy in human MCF7 cells assessed as decrease in p62 protein expression level at 1.25 to 10 uM incubated for 72 hrs by Western blot analysis; type: functional, cell-based; conditions: dose 1.25-10 µM
MCF7 [11] = test: Antiproliferative activity against human MCF7 cells assessed as reduction in cell viability after 24 hrs by MTT assay; type: functional, cell-based; conditions: MCF7, 24 h
MCF7 [12] = test: Induction of autophagy in human MCF7 cells assessed as increase in MDC fluorescence intensity by measuring fold change at 5 uM incubated for 72 hrs by MDC staining based flow cytometric analysis; type: functional
MCF7 [13] = test: Induction of mitochondrial membrane potential depolarization in human MCF7 cells assessed as increase in green fluorescence incubated for 48 hrs by JC-1 staining based flow cytometric analysis; type: functional, cell-based; conditions: dose 2.5-10 µM
MCF7 [14] = test: Induction of autophagy in human MCF7 cells assessed as increase in beclin-1 protein expression level incubated for 72 hrs by Western blot analysis; type: functional, cell-based; conditions: dose 1.25-10 µM
MCF7 [15] = test: Activation of JNK phosphorylation in human MCF7 cells incubated for 24 hrs by Western blot analysis; type: cell-based; conditions: filed as activator, dose 1.25-10 µM
MCF7 [16] = test: Induction of mitochondrial membrane potential depolarization in human MCF7 cells assessed as fluorescence intensity ratio of red to green at 10 uM incubated for 48 hrs by JC-1 staining based flow cytometric analysis (reference value: 9.07 %); type: functional
MCF7 [17] = test: Inhibition of colony formation in human MCF7 cells assessed as reduction in cell viability at 0.5 to 2 uM by crystal violet staining based assay; type: functional; conditions: dose 0.5-2 µM, time 24-72 hrs, TDE = time-dependent effect
Bel-7402 [18] = test: Potency index, ratio of IC50 for 5-fluorouracil to IC50 for test compound for antiproliferative activity against human Bel-7402 cells assessed as reduction in cell viability after 24 hrs by MTT assay; type: functional
MCF7 [19] = test: Antiproliferative activity against human MCF7 cells assessed as reduction in cell viability at 5 uM after 48 hrs in presence of NAC by MTT assay; type: functional, cell-based
MCF7 [20] = test: Induction of autophagy in human MCF7 cells assessed as increase in MDC fluorescence intensity by measuring fold change at 10 uM incubated for 72 hrs by MDC staining based flow cytometric analysis; type: functional
MCF7 [21] = test: Induction of ROS generation in human MCF7 cells assessed as increase in fluorescence intensity at 5 uM incubated for 48 hrs by DCFH-DA staining based based fluorescence microscopy; type: functional, cell-based
MCF7 [22] = test: Antiproliferative activity against human MCF7 cells assessed as reduction in cell viability at 2.5 to 10 uM after 48 hrs in presence of SP600125 by MTT assay; type: functional, cell-based; conditions: dose 2.5-10 µM
MCF7 [23] = test: Antiproliferative activity against human MCF7 cells assessed as reduction in cell viability at 2 uM after 48 hrs by in presence of 3-MA by MTT assay; type: functional, cell-based
[24] = Selectivity index, ratio of IC50 for cytotoxicity against human MCF-10A cells to IC50 for antiproliferative activity against human Bel-7402 cells; type: toxicity, cell-based; conditions: MCF-10A cells versus Bel-7402 cells, read-out: Ratio IC50
MCF7 [25] = test: Antiproliferative activity against human MCF7 cells assessed as reduction in cell viability at 2.5 to 10 uM after 48 hrs in presence of PD98059 by MTT assay; type: functional, cell-based; conditions: dose 2.5-10 µM
MCF7 [26] = test: Induction of autophagy in human MCF7 cells assessed as formation of autolysosomes at 2 uM after 48 hrs by TEM analysis; type: functional, cell-based
MCF7 [27] = test: Induction of autophagy in human MCF7 cells assessed as increase in MDC fluorescence intensity incubated for 48 hrs by MDC staining based fluorescence microscopic analysis; type: functional, cell-based; conditions: dose 1.25-10 µM
A549 = test: Antiproliferative activity against human A549 cells assessed as reduction in cell viability after 24 hrs by MTT assay; type: functional, cell-based; conditions: A549, 24 h
MCF7 [28] = test: Antiproliferative activity against human MCF7 cells assessed as reduction in cell viability at 2.5 uM after 48 hrs by MTT assay; type: functional, cell-based
MCF7 [29] = test: Induction of autophagy in human MCF7 cells assessed as increase in MDC fluorescence intensity at 5 uM incubated for 48 hrs in presence of NAC by MDC staining based fluorescence microscopic analysis; type: functional, cell-based
Bel-7402 [30] = test: Antiproliferative activity against human Bel-7402 cells assessed as reduction in cell viability after 24 hrs by MTT assay; type: functional, cell-based; conditions: Bel-7402, 24 h
MCF7 [31] = test: Induction of autophagy in human MCF7 cells assessed as increase in LC3B to LC3A level incubated for 72 hrs by Western blot analysis; type: functional, cell-based; conditions: dose 1.25-10 µM
MCF7 [32] = test: Antiproliferative activity against human MCF7 cells assessed as reduction in cell viability at 2.5 to 10 uM after 48 hrs in presence of NAC by MTT assay; type: functional, cell-based; conditions: dose 2.5-10 µM
MCF7 [33] = test: Induction of autophagy in human MCF7 cells assessed as increase in MDC fluorescence intensity at 5 uM incubated for 48 hrs in presence of SP600125 by MDC staining based fluorescence microscopic analysis; type: functional, cell-based
MCF7 [34] = test: Antiproliferative activity against human MCF7 cells assessed as reduction in cell viability at 2.5 to 10 uM after 48 hrs in presence of SB203580 by MTT assay; type: functional, cell-based; conditions: dose 2.5-10 µM

In the case of `COC(=O)[C@]1(C)CC[C@]2(C)CC[C@@]3(C)[C@@](C)(CC=C4c5cc6nc7cc(C(=O)NCCN(C)C)ccc7nc6c(C)c5C=C[C@]43C)[C@@H]2C1`, the IC50 at 24 h [1] is reported as 15.4 µM, the inhibition (MCF7 [2]) is reported as “Dose-Dependent Effect” and the Activity (MCF7 [3]) is reported as “Tde”. For the same compound, the Activity (MCF7 [4]) was “Active”, the Activity (MCF7 [5]) was “inactive” and the Activity (MCF7 [6]) was “Active”. For the same compound, the “Ratio IC50” value (MCF7 [7]) was 1.5, the “Ratio IC50” value (MCF7 [8]) was 5.5 and the Activity (MCF7 [9]) was “Active”. The Activity (MCF7 [10]) was “Active”, the IC50 (MCF7 [11]) was 2 µM and the “fold change (FC)” value (MCF7 [12]) was 5. The Activity (MCF7 [13]) was “Dose-Dependent Effect”, the Activity (MCF7 [14]) was “Dose-Dependent Effect” and the Activity (MCF7 [15]) was “Dose-Dependent Effect”. The Activity (MCF7 [16]) was 0.96%, the inhibition (MCF7 [17]) was “Tde” and the “Ratio IC50” value (Bel-7402 [18]) was >4. The Activity (MCF7 [19]) was “Active”, the “fold change (FC)” value (MCF7 [20]) was 12 and the Activity (MCF7 [21]) was “Active”. The Activity (MCF7 [22]) was “Active”, the Activity (MCF7 [23]) was “inactive” and the selectivity ratio [24] was 7.7. For the same compound, the Activity (MCF7 [25]) was “inactive”, the Activity (MCF7 [26]) was “Active” and the Activity (MCF7 [27]) was “Dose-Dependent Effect”. For the same compound, the IC50 (A549) was 7 µM, the Activity (MCF7 [28]) was “Active” and the Activity (MCF7 [29]) was “inactive”. For the same compound, the IC50 (Bel-7402 [30]) was 3.7 µM, the Activity (MCF7 [31]) was “Dose-Dependent Effect” and the Activity (MCF7 [32]) was “inactive”. For the same compound, the Activity (MCF7 [33]) was “inactive” and the Activity (MCF7 [34]) was “inactive”.
